Reference: PubChem BioAssay AID256 (DTP/NCI, 2004)
Values joined by “and” are separate entries in the source; they are usually repeats but may differ in a detail not shown here. Equal values may be shown once. Toxic doses and inconclusive results are not listed.

Tested on: CD2F1 mice, L1210 leukemia ip, survival T/C
Test: NCI In Vivo Anticancer Drug Screen. Data for tumor model L1210 Leukemia (intraperitoneal) in CD2F1 (CDF1) mice
Details: higher = longer survival
In short: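 Compound-dosed mice with transplantable tumor versus matched vehicle controls; endpoint ratio T/C reported.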

[1] = endpoint: mean survival time, dose: 100.0 mg/kg/injection, schedule: Q01DX009 (ip), vehicle: saline with Tween-80
[2] = endpoint: mean survival time, dose: 100.0 mg/kg/injection, schedule: Q04DX003 (ip), vehicle: saline with Tween-80
[3] = endpoint: mean survival time, dose: 200.0 mg/kg/injection, schedule: Q01DX009 (ip), vehicle: saline with Tween-80
[4] = endpoint: mean survival time, dose: 200.0 mg/kg/injection, schedule: Q04DX003 (ip), vehicle: saline with Tween-80
[5] = endpoint: mean survival time, dose: 400.0 mg/kg/injection, schedule: Q01DX009 (ip), vehicle: saline with Tween-80
[6] = endpoint: mean survival time, dose: 400.0 mg/kg/injection, schedule: Q04DX003 (ip), vehicle: saline with Tween-80
[7] = endpoint: mean survival time, dose: 50.0 mg/kg/injection, schedule: Q04DX003 (ip), vehicle: saline with Tween-80

Cc1cc2c(c3oc(C4(C)OC4C4OC4C)cc(=O)c13)C(=O)c1c(O)c(C3CC(C)(N(C)C)C(O)C(C)O3)cc(C3CC(N(C)C)C(O)C(C)O3)c1C2=O (stereo unspecified)
T/C (endpoint: mean survival time, dose: 0.07 mg/kg/injection, schedule: Q01DX009 (oral), vehicle: saline): 87 % of control | T/C (endpoint: mean survival time, dose: 0.13 mg/kg/injection, schedule: Q01DX009 (oral), vehicle: saline): 93 % of control | T/C (endpoint: mean survival time, dose: 0.25 mg/kg/injection, schedule: Q01DX001 (oral), vehicle: saline): 98 % of control | T/C (endpoint: mean survival time, dose: 0.25 mg/kg/injection, schedule: Q01DX009 (oral), vehicle: saline): 92 % of control | T/C (endpoint: mean survival time, dose: 0.5 mg/kg/injection, schedule: Q01DX001 (oral), vehicle: saline): 97 % of control | T/C (endpoint: mean survival time, dose: 0.5 mg/kg/injection, schedule: Q01DX009 (oral), vehicle: saline): 100 % of control | T/C (endpoint: mean survival time, dose: 1.0 mg/kg/injection, schedule: Q01DX001 (oral), vehicle: saline): 96 % of control | T/C (endpoint: mean survival time, dose: 2.0 mg/kg/injection, schedule: Q01DX001 (oral), vehicle: saline): 97 % of control | T/C (endpoint: mean survival time, dose: 1.0 micrograms/kg/injection, schedule: Q03HX024 (ip), vehicle: saline): 106 % of control | T/C (endpoint: mean survival time, dose: 1.3 micrograms/kg/injection, schedule: Q01DX009 (ip), vehicle: water): 101 % of control | T/C (endpoint: mean survival time, dose: 2.0 micrograms/kg/injection, schedule: Q03HX024 (ip), vehicle: saline): 111 % of control | T/C (endpoint: mean survival time, dose: 2.5 micrograms/kg/injection, schedule: Q01DX009 (ip), vehicle: water): 112 % of control | T/C (endpoint: mean survival time, dose: 4.0 micrograms/kg/injection, schedule: Q01DX009 (ip), vehicle: saline): 102 % of control | T/C (endpoint: mean survival time, dose: 4.0 micrograms/kg/injection, schedule: Q03HX024 (ip), vehicle: saline): 111 % of control | T/C (endpoint: mean survival time, dose: 5.0 micrograms/kg/injection, schedule: Q01DX009 (ip), vehicle: water): 108 % of control | T/C (endpoint: mean survival time, dose: 8.0 micrograms/kg/injection, schedule: Q01DX009 (ip), vehicle: saline): 109 % of control | T/C (endpoint: mean survival time, dose: 8.0 micrograms/kg/injection, schedule: Q03HX008 (ip), vehicle: saline): 103 % of control | T/C (endpoint: mean survival time, dose: 8.0 micrograms/kg/injection, schedule: Q03HX024 (ip), vehicle: saline): 112 % of control | T/C (endpoint: mean survival time, dose: 10.0 micrograms/kg/injection, schedule: Q01DX009 (ip), vehicle: water): 112 % of control | T/C (endpoint: mean survival time, dose: 15.0 micrograms/kg/injection, schedule: Q01DX009 (ip), vehicle: saline): 109 % of control | T/C (endpoint: mean survival time, dose: 15.0 micrograms/kg/injection, schedule: Q03HX008 (ip), vehicle: saline): 112 % of control | T/C (endpoint: mean survival time, dose: 15.0 micrograms/kg/injection, schedule: Q08DX002 (ip), vehicle: saline): 98 % of control | T/C (endpoint: mean survival time, dose: 20.0 micrograms/kg/injection, schedule: Q01DX009 (ip), vehicle: water): 106 % of control | T/C (endpoint: mean survival time, dose: 30.0 micrograms/kg/injection, schedule: Q01DX009 (ip), vehicle: saline): 114 % of control | T/C (endpoint: mean survival time, dose: 30.0 micrograms/kg/injection, schedule: Q03HX008 (ip), vehicle: saline): 113 % of control | T/C (endpoint: mean survival time, dose: 30.0 micrograms/kg/injection, schedule: Q08DX002 (ip), vehicle: saline): 98 % of control | T/C (endpoint: mean survival time, dose: 40.0 micrograms/kg/injection, schedule: Q01DX009 (ip), vehicle: water): 91 % of control | T/C (endpoint: mean survival time, dose: 60.0 micrograms/kg/injection, schedule: Q03HX008 (ip), vehicle: saline): 118 % of control | T/C (endpoint: mean survival time, dose: 60.0 micrograms/kg/injection, schedule: Q08DX002 (ip), vehicle: saline): 106 % of control | T/C (endpoint: mean survival time, dose: 120.0 micrograms/kg/injection, schedule: Q08DX002 (ip), vehicle: saline): 121 % of control

CCN(C(=O)C(F)(F)F)C(C)(C)C(SSSC(c1ccc(Cl)cc1)C(C)(C)N(CC)C(=O)C(F)(F)F)c1ccc(Cl)cc1 (stereo unspecified)
T/C (endpoint: mean survival time, dose: 100.0 mg/kg/injection, schedule: Q04DX003 (ip), vehicle: saline): 103 % of control | T/C (endpoint: mean survival time, dose: 200.0 mg/kg/injection, schedule: Q04DX003 (ip), vehicle: saline): 105 % of control | T/C (endpoint: mean survival time, dose: 400.0 mg/kg/injection, schedule: Q04DX003 (ip), vehicle: saline): 86 % of control

O=C(O)c1ccccc1C(=O)Nc1ccccc1C(F)(F)F
T/C [1]: 104 % of control | T/C [2]: 96 % of control | T/C [3]: 106 % of control | T/C [4]: 102 % of control | T/C [5]: 95 % of control | T/C [6]: 105 % of control

O=C(O)CCCc1cc(O)c2c(c1O)C(=O)c1ccccc1C2=O
T/C [7]: 120 % of control | T/C [2]: 104 % of control | T/C [4]: 101 % of control

COC(=O)C1OC(Sc2ncnc3nc[nH]c23)C(O)C(O)C1O (stereo unspecified)
T/C (endpoint: median survival time, dose: 25.0 mg/kg/injection, schedule: Q01DX005 (ip), vehicle: water): 98 % of control | T/C (endpoint: median survival time, dose: 50.0 mg/kg/injection, schedule: Q01DX005 (ip), vehicle: water): 109 % of control | T/C (endpoint: median survival time, dose: 100.0 mg/kg/injection, schedule: Q01DX005 (ip), vehicle: water): 109 % of control | T/C (endpoint: median survival time, dose: 200.0 mg/kg/injection, schedule: Q01DX005 (ip), vehicle: water): 113 % of control and 118 % of control | T/C (endpoint: median survival time, dose: 400.0 mg/kg/injection, schedule: Q01DX005 (ip), vehicle: water): 119 % of control

O=NN(CCCl)C(=S)NC1CCCCC1
T/C (endpoint: mean survival time, dose: 6.25 mg/kg/injection, schedule: Q01DX001 (ip), vehicle: other): 104 % of control | T/C (endpoint: mean survival time, dose: 12.5 mg/kg/injection, schedule: Q01DX001 (ip), vehicle: other): 211 % of control | T/C (endpoint: mean survival time, dose: 25.0 mg/kg/injection, schedule: Q01DX001 (ip), vehicle: other): 246 % of control and 403 % of control | T/C (endpoint: mean survival time, dose: 50.0 mg/kg/injection, schedule: Q01DX001 (ip), vehicle: other): 295 % of control and 523 % of control

CC(=O)OCC1CCN2CCCC12 (stereo unspecified)
T/C (endpoint: mean survival time, dose: 12.5 mg/kg/injection, schedule: Q01DX009 (ip), vehicle: water): 101 % of control | T/C (endpoint: mean survival time, dose: 25.0 mg/kg/injection, schedule: Q01DX009 (ip), vehicle: water): 96 % of control | T/C (endpoint: mean survival time, dose: 50.0 mg/kg/injection, schedule: Q01DX009 (ip), vehicle: water): 98 % of control | T/C (endpoint: mean survival time, dose: 100.0 mg/kg/injection, schedule: Q01DX009 (ip), vehicle: water): 101 % of control | T/C (endpoint: mean survival time, dose: 200.0 mg/kg/injection, schedule: Q01DX009 (ip), vehicle: water): 101 % of control

CN1C(=O)NC(c2cccc(N(CCCl)CCCl)c2)C1=O (stereo unspecified)
T/C (endpoint: mean survival time, dose: 25.0 mg/kg/injection, schedule: Q01DX001 (ip), vehicle: Klucel (hydroxypropylcellulose) (HPC)): 116 % of control and 108 % of control | T/C (endpoint: mean survival time, dose: 50.0 mg/kg/injection, schedule: Q01DX001 (ip), vehicle: Klucel (hydroxypropylcellulose) (HPC)): 120 % of control | T/C (endpoint: mean survival time, dose: 100.0 mg/kg/injection, schedule: Q01DX001 (ip), vehicle: Klucel (hydroxypropylcellulose) (HPC)): 121 % of control

CC(=O)O.CC(=O)O.CC(=O)O.[O]=[U]=[O]
T/C (endpoint: mean survival time, dose: 12.5 mg/kg/injection, schedule: Q01DX009 (ip), vehicle: saline): 98 % of control | T/C (endpoint: mean survival time, dose: 25.0 mg/kg/injection, schedule: Q01DX009 (ip), vehicle: saline): 98 % of control | T/C (endpoint: mean survival time, dose: 50.0 mg/kg/injection, schedule: Q01DX009 (ip), vehicle: saline): 90 % of control

O=C(O)CCCCCc1ccccc1
T/C [1]: 96 % of control | T/C [2]: 102 % of control | T/C [3]: 95 % of control | T/C [4]: 91 % of control | T/C [5]: 101 % of control | T/C [6]: 101 % of control

COc1ccc2c(c1)CCC1C2=CC(=O)/C1=C\[O-].COc1ccc2c(c1)CCC1C2=CC(=O)/C1=C\[O-].[Cu+2] (stereo unspecified)
T/C (endpoint: mean survival time, dose: 12.5 mg/kg/injection, schedule: Q01DX009 (ip), vehicle: saline with Tween-80): 92 % of control | T/C (endpoint: mean survival time, dose: 12.5 mg/kg/injection, schedule: Q04DX003 (ip), vehicle: saline with Tween-80): 93 % of control | T/C (endpoint: mean survival time, dose: 25.0 mg/kg/injection, schedule: Q01DX009 (ip), vehicle: saline with Tween-80): 95 % of control | T/C (endpoint: mean survival time, dose: 25.0 mg/kg/injection, schedule: Q04DX003 (ip), vehicle: saline with Tween-80): 93 % of control | T/C (endpoint: mean survival time, dose: 50.0 mg/kg/injection, schedule: Q01DX009 (ip), vehicle: saline with Tween-80): 94 % of control | T/C [7]: 96 % of control

NCCCNCCCCNC(=O)C(O)NC(=O)CC(O)CCCCN=C(N)N (stereo unspecified)
T/C (endpoint: median survival time, dose: 1.56 mg/kg/injection, schedule: Q01DX009 (ip), vehicle: saline): 161 % of control and 181 % of control | T/C (endpoint: median survival time, dose: 3.0 mg/kg/injection, schedule: Q01DX009 (ip), vehicle: saline): 162 % of control | T/C (endpoint: median survival time, dose: 3.12 mg/kg/injection, schedule: Q01DX009 (ip), vehicle: saline): 164 % of control and 168 % of control and 210 % of control | T/C (endpoint: median survival time, dose: 6.0 mg/kg/injection, schedule: Q01DX009 (ip), vehicle: saline): 207 % of control | T/C (endpoint: median survival time, dose: 6.25 mg/kg/injection, schedule: Q01DX009 (ip), vehicle: saline): 164 % of control and 191 % of control and 219 % of control | T/C (endpoint: median survival time, dose: 12.0 mg/kg/injection, schedule: Q01DX009 (ip), vehicle: saline): 219 % of control | T/C (endpoint: median survival time, dose: 12.5 mg/kg/injection, schedule: Q01DX009 (ip), vehicle: saline): 173 % of control and 196 % of control and 217 % of control | T/C (endpoint: median survival time, dose: 100.0 mg/kg/injection, schedule: Q01DX009 (ip), vehicle: saline): 206 % of control and 235 % of control

CNC(=O)Nc1ccncc1
T/C [1]: 97 % of control | T/C [3]: 102 % of control | T/C [5]: 102 % of control

CCCCN(C)CCNc1cc(C)nc(/N=C(\N)Nc2ccc(Cl)c(Cl)c2)n1
T/C (endpoint: mean survival time, dose: 75.0 mg/kg/injection, schedule: Q01DX001 (ip), vehicle: other): 97 % of control
